Data published in the NIST ThermoML archive (doi:10.1016/j.jct.2013.09.035).

Conditions: Liquid, Vibrating tube method

CCOC(F)(C(F)(F)C(F)(F)C(F)(F)F)C(F)(C(F)(F)F)C(F)(F)F (centres undefined) [2-trifluoromethyl-3-ethoxydodecafluorohexane]
Conditions	mass density [kg/m3]
283.48 K, 60000 kPa	1751.01
283.49 K, 3000 kPa	1658.1
283.49 K, 50000 kPa	1737.96
283.49 K, 70000 kPa	1762.23
283.5 K, 5000 kPa	1662.38
283.5 K, 10000 kPa	1672.98
283.5 K, 30000 kPa	1709.09
283.5 K, 40000 kPa	1724.44
283.5 K, 80000 kPa	1773.1
283.5 K, 90000 kPa	1783.39
283.51 K, 100 kPa	1652.11
283.51 K, 1000 kPa	1653.72
283.51 K, 15000 kPa	1682.71
283.51 K, 20000 kPa	1691.9
283.51 K, 25000 kPa	1701.13
283.52 K, 100000 kPa	1793.19
293.04 K, 40000 kPa	1708.75
293.04 K, 50000 kPa	1723.04
293.04 K, 70000 kPa	1748.33
293.04 K, 90000 kPa	1770.03
293.04 K, 100000 kPa	1780.11
293.05 K, 100 kPa	1631.62
293.05 K, 1000 kPa	1633.93
293.05 K, 3000 kPa	1638.93
293.05 K, 5000 kPa	1643.69
293.05 K, 10000 kPa	1654.94
293.05 K, 15000 kPa	1665.37
293.05 K, 20000 kPa	1675.05
293.05 K, 25000 kPa	1684.16
293.05 K, 30000 kPa	1692.79
293.05 K, 60000 kPa	1736.39
293.05 K, 80000 kPa	1759.65
302.88 K, 100 kPa	1610.41
302.88 K, 1000 kPa	1612.92
302.88 K, 3000 kPa	1618.33
302.88 K, 10000 kPa	1635.7
302.88 K, 60000 kPa	1721.46
302.89 K, 5000 kPa	1623.52
302.89 K, 15000 kPa	1646.85
302.89 K, 20000 kPa	1657.18
302.89 K, 25000 kPa	1666.89
302.89 K, 30000 kPa	1676.01
302.89 K, 40000 kPa	1692.64
302.89 K, 50000 kPa	1707.74
302.89 K, 70000 kPa	1733.98
302.89 K, 80000 kPa	1745.75
302.89 K, 90000 kPa	1756.68
302.89 K, 100000 kPa	1767.03
313.15 K, 90000 kPa	1744.34
313.16 K, 3000 kPa	1598.14
313.16 K, 15000 kPa	1628.94
313.16 K, 20000 kPa	1639.8
313.16 K, 30000 kPa	1659.7
313.16 K, 40000 kPa	1677.38
313.16 K, 60000 kPa	1707.63
313.17 K, 100 kPa	1589.56
313.17 K, 1000 kPa	1592.21
313.17 K, 10000 kPa	1616.81
313.17 K, 25000 kPa	1650.1
313.17 K, 50000 kPa	1693.17
313.17 K, 70010 kPa	1720.7
313.17 K, 80000 kPa	1733
313.17 K, 100000 kPa	1755.06
313.18 K, 5000 kPa	1603.66
323.04 K, 5000 kPa	1585.04
323.04 K, 10000 kPa	1599.21
323.04 K, 15000 kPa	1612.03
323.04 K, 20000 kPa	1623.79
323.04 K, 25000 kPa	1634.67
323.04 K, 30000 kPa	1644.88
323.04 K, 40000 kPa	1663.35
323.04 K, 50000 kPa	1679.91
323.04 K, 60000 kPa	1694.93
323.04 K, 70000 kPa	1708.52
323.04 K, 80000 kPa	1721.13
323.04 K, 90000 kPa	1732.9
323.04 K, 100000 kPa	1743.96
323.05 K, 1000 kPa	1572.54
323.05 K, 3000 kPa	1578.97
323.06 K, 100 kPa	1569.59
332.94 K, 15000 kPa	1591.88
332.94 K, 20000 kPa	1604.4
332.94 K, 25000 kPa	1615.92
332.94 K, 30000 kPa	1626.63
332.94 K, 40000 kPa	1646.05
332.94 K, 50000 kPa	1663.31
332.94 K, 60000 kPa	1678.97
332.94 K, 70000 kPa	1693.19
332.94 K, 80000 kPa	1706.27
332.94 K, 90000 kPa	1718.48
332.94 K, 100000 kPa	1729.78
332.95 K, 3000 kPa	1556.26
332.95 K, 5000 kPa	1562.89
332.95 K, 10000 kPa	1578.13
332.96 K, 1000 kPa	1549.29
332.97 K, 100 kPa	1546.01
342.55 K, 100 kPa	1525.56
342.56 K, 1000 kPa	1529.11
342.56 K, 3000 kPa	1536.69
342.56 K, 5000 kPa	1543.86
342.56 K, 10000 kPa	1560.31
342.57 K, 15000 kPa	1574.95
342.57 K, 20000 kPa	1588.2
342.57 K, 25000 kPa	1600.4
342.57 K, 30000 kPa	1611.69
342.57 K, 40000 kPa	1632.02
342.57 K, 50000 kPa	1650.06
342.57 K, 60000 kPa	1666.29
342.57 K, 70000 kPa	1680.92
342.57 K, 80000 kPa	1694.39
342.57 K, 90000 kPa	1706.96
342.57 K, 100000 kPa	1718.69
352.56 K, 100 kPa	1503.72
352.56 K, 1000 kPa	1507.64
352.57 K, 3000 kPa	1515.99
352.57 K, 5000 kPa	1523.8
352.57 K, 10000 kPa	1541.62
352.57 K, 15000 kPa	1557.31
352.57 K, 20000 kPa	1571.45
352.57 K, 25000 kPa	1584.35
352.57 K, 30000 kPa	1596.28
352.57 K, 40000 kPa	1617.61
352.57 K, 50000 kPa	1636.45
352.57 K, 70000 kPa	1668.54
352.58 K, 60000 kPa	1653.3
352.58 K, 80000 kPa	1682.53
352.58 K, 90000 kPa	1695.44
352.58 K, 100000 kPa	1707.52
362.59 K, 5000 kPa	1503.25
362.59 K, 10000 kPa	1522.52
362.59 K, 15000 kPa	1539.4
362.6 K, 100 kPa	1481.19
362.6 K, 1000 kPa	1485.52
362.6 K, 3000 kPa	1494.68
362.6 K, 20000 kPa	1554.46
362.6 K, 25000 kPa	1568.1
362.6 K, 30000 kPa	1580.67
362.6 K, 40000 kPa	1603.06
362.6 K, 50000 kPa	1622.7
362.6 K, 60000 kPa	1640.27
362.6 K, 70000 kPa	1656.03
362.6 K, 80000 kPa	1670.49
362.6 K, 90000 kPa	1683.83
362.6 K, 100000 kPa	1696.22
